Measurements: PubChem BioAssay (NCI)
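Step 1: Grow cells in 96-well plates. Step 2: Expose to compound for 48 hours at 5 concentrations. Step 3: Interpolate endpoints linearly; if unreached, use highest concentration. Here, GI50 denotes the concentration required for 50% inhibition of growth. TGI: total growth inhibition.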

How the values were obtained:
Test in all cases: NCI tumour cell line growth inhibition, 48 h
[1] = test system: MDA-MB-468 breast
[2] = test system: HOP-62 NSCLC
[3] = test system: TK-10 renal
[4] = test system: UACC-257 melanoma
[5] = test system: NCI-H23 lung
[6] = test system: SNB-75 CNS
[7] = test system: OVCAR-8 ovarian
[8] = test system: RPMI-8226 leukemia
[9] = test system: CCRF-CEM leukemia
[10] = test system: MCF7 breast
[11] = test system: OVCAR-5 ovarian
[12] = test system: SW-620 colon
[13] = test system: BT-549 breast
[14] = test system: MOLT-4 leukemia
[15] = test system: SF-295 CNS
[16] = test system: SNB-19 CNS
[17] = test system: MDA-MB-231 breast
[18] = test system: DU-145 prostate
[19] = test system: SN12C renal
[20] = test system: HT29 colon
[21] = test system: ACHN renal
[22] = test system: MDA-MB-435
[23] = test system: U251 CNS
[24] = test system: LOX IMVI melanoma
[25] = test system: SK-MEL-2 melanoma
[26] = test system: CAKI-1 renal
[27] = test system: M14 melanoma
[28] = test system: HS 578T breast
[29] = test system: HCC-2998 colon
[30] = test system: SF-268 CNS
[31] = test system: SK-MEL-28 melanoma
[32] = test system: 786-0 renal
[33] = test system: SR leukemia
[34] = test system: RXF 393 renal
[35] = test system: KM12 colon
[36] = test system: HCT-15 colon
[37] = test system: SK-OV-3 ovarian
[38] = test system: IGROV1 ovarian
[39] = test system: T-47D breast
[40] = test system: HCT-116 colon
[41] = test system: HOP-92 NSCLC
[42] = test system: HL-60(TB) leukemia
[43] = test system: NCI/ADR-RES ovarian
[44] = test system: NCI-H226 lung
[45] = test system: UO-31 renal
[46] = test system: A549 NSCLC
[47] = test system: SK-MEL-5 melanoma
[48] = test system: OVCAR-3 ovarian
[49] = test system: EKVX NSCLC
[50] = test system: SF-539 CNS
[51] = test system: PC-3 prostate
[52] = test system: A498 renal
[53] = test system: K-562 leukemia
[54] = test system: NCI-H460 lung
[55] = test system: OVCAR-4 ovarian

## CC1=NN(C(=O)c2nn(-c3ccc(Cl)cc3)cc2O)C(=O)C1
[1]
  GI50: 4920 nM
  TGI: 97000 nM

## CN(CCCN(C)CCC1CCCCC1)CCC1CCCCC1
[1]
  GI50: 1300 nM
  TGI: 2660 nM

## Cc1c(C(N)=O)sc2c1c(=O)n(Cc1ccccc1)c1nnc(S(=O)(=O)CC(=O)Nc3ccc(Cl)cc3)n21
[1]
  GI50: 12700 nM
  TGI: 36300 nM

## O=C(CN1C(=O)S/C(=C\C(Cl)=C\c2ccccc2)C1=O)NCCCn1ccnc1
[1]
  GI50: 1350 nM
  TGI: 4190 nM

## C=C1C(=O)O[C@H]2[C@H]1CC/C(CNC(=O)/C=C/c1ccc(Cl)cc1Cl)=C\CC[C@@]1(C)O[C@@H]21
[1]
  GI50: 396 nM
  TGI: 1470 nM

## c1ccc(/C(=N\Nc2ccc3ccccc3n2)c2ccccn2)cc1
[1]
  GI50: 364 nM
  TGI: 5820 nM

## O=c1[nH]nc(-c2ccccc2)c2c(-c3ccccc3)onc12
[1]
  GI50: 424 nM
  TGI: > 100000 nM

## CCc1c2c(nc3ccc(OCc4ccc(B5OC(C)(C)C(C)(C)O5)cc4)cc13)-c1cc3c(c(=O)n1C2)COC(=O)[C@]3(O)CC
[1]
  GI50: < 10 nM
  TGI: 43.2 nM

## Cn1ncnc1C1c2n[nH]c(=O)c3cc(F)cc(c23)NC1c1ccc(F)cc1 (centres undefined)
[1]
  GI50: 3740 nM
  TGI: > 100000 nM

## O=C(N/N=C/c1ccc(Br)s1)c1[nH]c2ccc(Br)cc2c1-c1ccccc1
[1]
  GI50: 327 nM
  TGI: 4890 nM

## CNc1ncc2cc(Oc3ccc(F)cc3F)c(=O)n(C)c2n1
[1]
  GI50: > 25000 nM
  TGI: > 25000 nM

## O=C1C=C(OCCCl)C(=O)c2c(O)ccc(O)c21
[1]
  GI50: 1640 nM
  TGI: 3860 nM

## O=C1COCCN1c1ccc(NCc2cn(C(=O)c3ccc(Cl)cc3)c3ccccc23)cc1
[1]
  GI50: 101 nM
  TGI: 286 nM

## Cc1ccc(-c2c3c(N)c4c(nc3nc3c2c(C)nn3-c2ccccc2)CCC4)cc1
[1]
  GI50: 1970 nM
  TGI: 5150 nM

## CCCN(CCC)S(=O)(=O)c1ccc(C(=O)O)cc1.CCCN(CCC)S(=O)(=O)c1ccc(C(=O)O)cc1.[Cl][Pt+2][Cl].[NH2-].[NH2-]
[2]
  GI50: 653 nM
  TGI: > 95000 nM
[3]
  GI50: > 100000 nM
  TGI: > 100000 nM
[4]
  GI50: 2130 nM
  TGI: > 100000 nM
[5]
  GI50: 249 nM
  TGI: 2810 nM
[6]
  GI50: 666 nM
  TGI: 13300 nM
[7]
  GI50: 1400 nM
  TGI: > 100000 nM
[8]
  GI50: 289 nM
[9]
  GI50: 138 nM
[10]
  GI50: 149 nM
  TGI: > 100000 nM
[11]
  GI50: 1440 nM
  TGI: > 100000 nM
[12]
  GI50: 518 nM
  TGI: > 100000 nM
[13]
  GI50: 369 nM
  TGI: 1900 nM
[14]
  GI50: 246 nM
  TGI: > 100000 nM
[15]
  GI50: 1640 nM
  TGI: > 100000 nM
[16]
  GI50: 1600 nM
  TGI: 60500 nM
[17]
  GI50: 3150 nM
  TGI: > 58300 nM
[18]
  GI50: 351 nM
  TGI: > 100000 nM
[19]
  GI50: 200 nM
  TGI: > 100000 nM
[20]
  GI50: 2760 nM
  TGI: > 100000 nM
[21]
  GI50: 477 nM
  TGI: > 100000 nM
[22]
  GI50: 801 nM
  TGI: 2720 nM
[23]
  GI50: 995 nM
  TGI: > 84200 nM
[24]
  GI50: 349 nM
  TGI: > 45200 nM
[25]
  GI50: 2030 nM
  TGI: 5210 nM
[26]
  GI50: 2270 nM
  TGI: > 100000 nM
[27]
  GI50: 1000 nM
  TGI: > 100000 nM
[28]
  GI50: 13900 nM
  TGI: > 100000 nM
[29]
  GI50: 926 nM
  TGI: 9490 nM
[30]
  GI50: 700 nM
  TGI: > 100000 nM
[31]
  GI50: 733 nM
  TGI: > 24100 nM
[32]
  GI50: 1440 nM
  TGI: > 100000 nM
[33]
  GI50: 112 nM
  TGI: > 100000 nM
[34]
  GI50: 425 nM
  TGI: 5080 nM
[35]
  GI50: 2610 nM
  TGI: > 100000 nM
[36]
  GI50: > 100000 nM
  TGI: > 100000 nM
[37]
  GI50: 1580 nM
  TGI: 22000 nM
[38]
  GI50: 3600 nM
  TGI: 24200 nM
[39]
  GI50: 349 nM
  TGI: > 100000 nM
[40]
  GI50: 945 nM
  TGI: > 52000 nM
[41]
  GI50: 596 nM
  TGI: > 21800 nM
[42]
  GI50: 221 nM
  TGI: > 100000 nM
[43]
  GI50: > 100000 nM
  TGI: > 100000 nM
[44]
  GI50: 4040 nM
  TGI: 99600 nM
[45]
  GI50: > 72600 nM
  TGI: > 100000 nM
[46]
  GI50: 2890 nM
  TGI: > 100000 nM
[47]
  GI50: 476 nM
  TGI: 1800 nM
[48]
  GI50: 1070 nM
  TGI: > 27000 nM
[49]
  GI50: 8400 nM
  TGI: > 100000 nM
[50]
  GI50: 289 nM
  TGI: > 33200 nM
[51]
  GI50: 2250 nM
  TGI: > 100000 nM
[52]
  GI50: 29600 nM
  TGI: > 85400 nM
[53]
  GI50: 179 nM
  TGI: > 100000 nM
[54]
  GI50: 151 nM
  TGI: > 68600 nM
[55]
  GI50: 4570 nM
  TGI: > 100000 nM
